Assay results from the NIST ThermoML archive (doi:10.1021/je7003758).
± gives the expanded uncertainty stated by the source.

Test: xn = mol fraction of the nth substance listed
Details: 298.15 K, Liquid

ClCCCl [1,2-dichloroethane] + CN1CCCC1=O
mass density [kg/m3]
Details | x2 = 0.0993 | x2 = 0.2025 | x2 = 0.3012 | x2 = 0.4029 | x2 = 0.4975 | x2 = 0.5832 | x2 = 0.7037 | x2 = 0.7984 | x2 = 0.9029
100 kPa | 1220.4 ± 0.5 | 1195.3 ± 0.5 | 1172.3 ± 0.5 | 1149.2 ± 0.4 | 1128.3 ± 0.4 | 1110 ± 0.4 | 1085.1 ± 0.4 | 1066.3 ± 0.3 | 1046.2 ± 0.3
500 kPa | 1220.7 ± 0.6 | 1195.6 ± 0.5 | 1172.6 ± 0.5 | 1149.4 ± 0.4 | 1128.5 ± 0.4 | 1110.2 ± 0.4 | 1085.4 ± 0.4 | 1066.5 ± 0.3 | 1046.5 ± 0.3
1000 kPa | 1221.2 ± 0.6 | 1196 ± 0.5 | 1173 ± 0.5 | 1149.8 ± 0.5 | 1128.9 ± 0.4 | 1110.5 ± 0.4 | 1085.7 ± 0.4 | 1066.8 ± 0.3 | 1046.7 ± 0.3
1500 kPa | 1221.7 ± 0.6 | 1196.5 ± 0.6 | 1173.4 ± 0.5 | 1150.2 ± 0.5 | 1129.2 ± 0.4 | 1110.9 ± 0.4 | 1086 ± 0.4 | 1067.1 ± 0.3 | 1047 ± 0.3
2000 kPa | 1222.1 ± 0.6 | 1196.9 ± 0.6 | 1173.7 ± 0.5 | 1150.6 ± 0.5 | 1129.6 ± 0.4 | 1111.2 ± 0.4 | 1086.3 ± 0.4 | 1067.4 ± 0.4 | 1047.3 ± 0.3
2500 kPa | 1222.6 ± 0.6 | 1197.3 ± 0.6 | 1174.2 ± 0.5 | 1150.9 ± 0.5 | 1129.9 ± 0.5 | 1111.5 ± 0.4 | 1086.6 ± 0.4 | 1067.7 ± 0.4 | 1047.6 ± 0.3
2900 kPa | – | – | 1174.5 ± 0.5 | – | – | – | – | – | –
3000 kPa | 1223 ± 0.7 | 1197.7 ± 0.6 | – | 1151.3 ± 0.5 | 1130.3 ± 0.5 | 1111.9 ± 0.4 | 1086.9 ± 0.4 | 1068 ± 0.4 | 1047.8 ± 0.3
3400 kPa | – | – | – | 1151.6 ± 0.5 | – | – | – | – | –
3500 kPa | 1223.5 ± 0.7 | 1198.1 ± 0.6 | 1174.9 ± 0.6 | – | 1130.6 ± 0.5 | – | 1087.2 ± 0.4 | 1068.3 ± 0.4 | 1048.1 ± 0.3
3600 kPa | – | – | – | – | – | 1112.2 ± 0.4 | – | – | –
4000 kPa | 1223.9 ± 0.7 | 1198.5 ± 0.6 | 1175.3 ± 0.6 | 1152 ± 0.5 | 1131 ± 0.5 | 1112.5 ± 0.4 | 1087.6 ± 0.4 | 1068.6 ± 0.4 | 1048.4 ± 0.3
4500 kPa | 1224.4 ± 0.7 | 1198.9 ± 0.6 | 1175.7 ± 0.6 | – | 1131.3 ± 0.5 | 1112.8 ± 0.5 | 1087.8 ± 0.4 | 1068.8 ± 0.4 | 1048.6 ± 0.3
4600 kPa | – | – | – | 1152.3 ± 0.5 | – | – | – | – | –
5000 kPa | 1224.8 ± 0.7 | 1199.3 ± 0.7 | 1176.1 ± 0.6 | 1152.8 ± 0.6 | 1131.6 ± 0.5 | 1113.2 ± 0.5 | 1088.1 ± 0.4 | 1069.1 ± 0.4 | 1048.9 ± 0.3
5500 kPa | 1225.2 ± 0.7 | 1199.8 ± 0.7 | 1176.5 ± 0.6 | 1153.1 ± 0.6 | 1131.9 ± 0.5 | 1113.5 ± 0.5 | 1088.4 ± 0.4 | 1069.4 ± 0.4 | 1049.2 ± 0.3
6000 kPa | 1225.7 ± 0.8 | 1200.2 ± 0.7 | 1176.9 ± 0.6 | 1153.5 ± 0.6 | 1132.4 ± 0.5 | 1113.8 ± 0.5 | 1088.7 ± 0.4 | 1069.7 ± 0.4 | 1049.4 ± 0.3
6500 kPa | 1226.1 ± 0.8 | 1200.6 ± 0.7 | 1177.2 ± 0.7 | 1153.9 ± 0.6 | 1132.7 ± 0.5 | 1114.1 ± 0.5 | 1089 ± 0.4 | 1070 ± 0.4 | 1049.7 ± 0.4
6900 kPa | – | – | – | – | – | 1114.4 ± 0.5 | – | – | –
7000 kPa | 1226.5 ± 0.8 | 1201 ± 0.7 | 1177.6 ± 0.7 | 1154.2 ± 0.6 | 1133 ± 0.5 | – | 1089.3 ± 0.4 | 1070.3 ± 0.4 | 1050 ± 0.4
7500 kPa | 1227 ± 0.8 | 1201.4 ± 0.7 | 1178 ± 0.7 | 1154.6 ± 0.6 | 1133.3 ± 0.6 | 1114.8 ± 0.5 | 1089.6 ± 0.4 | 1070.5 ± 0.4 | 1050.2 ± 0.4
7900 kPa | – | – | – | – | 1133.7 ± 0.6 | – | – | – | –
8000 kPa | 1227.4 ± 0.8 | 1201.8 ± 0.8 | 1178.4 ± 0.7 | 1154.9 ± 0.6 | – | 1115 ± 0.5 | 1089.9 ± 0.4 | 1070.9 ± 0.4 | 1050.6 ± 0.4
8500 kPa | 1227.8 ± 0.9 | 1202.2 ± 0.8 | 1178.8 ± 0.7 | 1155.3 ± 0.6 | 1134.1 ± 0.6 | 1115.4 ± 0.5 | 1090.2 ± 0.5 | 1071.1 ± 0.4 | 1050.8 ± 0.4
8900 kPa | – | 1202.6 ± 0.8 | – | – | – | – | – | – | –
9000 kPa | 1228.2 ± 0.9 | – | 1179.2 ± 0.7 | 1155.6 ± 0.7 | 1134.4 ± 0.6 | 1115.7 ± 0.5 | 1090.5 ± 0.5 | 1071.3 ± 0.4 | 1051.1 ± 0.4
9500 kPa | 1228.6 ± 0.9 | 1203.1 ± 0.8 | 1179.6 ± 0.7 | 1156 ± 0.7 | 1134.7 ± 0.6 | 1116 ± 0.5 | 1090.8 ± 0.5 | 1071.6 ± 0.4 | 1051.3 ± 0.4
9900 kPa | – | – | 1180 ± 0.8 | – | 1135 ± 0.6 | – | – | – | –
10000 kPa | 1229.2 ± 0.9 | 1203.6 ± 0.8 | – | 1156.4 ± 0.7 | – | 1116.4 ± 0.6 | 1091.1 ± 0.5 | 1072 ± 0.4 | 1051.7 ± 0.4
10500 kPa | 1229.6 ± 0.9 | 1203.9 ± 0.8 | 1180.4 ± 0.8 | 1156.7 ± 0.7 | 1135.4 ± 0.6 | 1116.7 ± 0.6 | 1091.4 ± 0.5 | 1072.2 ± 0.4 | 1051.9 ± 0.4
10900 kPa | – | – | 1180.7 ± 0.8 | – | – | 1117 ± 0.6 | – | – | –
11000 kPa | 1230 ± 1 | 1204.3 ± 0.9 | – | 1157.1 ± 0.7 | 1135.7 ± 0.6 | – | 1091.7 ± 0.5 | 1072.5 ± 0.4 | 1052.2 ± 0.4
11500 kPa | 1230.4 ± 1 | 1204.6 ± 0.9 | 1181.1 ± 0.8 | 1157.5 ± 0.7 | 1136.1 ± 0.6 | 1117.4 ± 0.6 | 1092 ± 0.5 | 1072.8 ± 0.4 | 1052.4 ± 0.4
11900 kPa | – | – | – | – | 1136.4 ± 0.7 | – | – | – | –
12000 kPa | 1230.8 ± 1 | 1205.1 ± 0.9 | 1181.5 ± 0.8 | 1157.8 ± 0.7 | – | 1117.7 ± 0.6 | 1092.3 ± 0.5 | 1073 ± 0.4 | 1052.7 ± 0.4
12500 kPa | 1231.3 ± 1 | 1205.5 ± 0.9 | 1181.9 ± 0.8 | 1158.2 ± 0.7 | 1136.8 ± 0.7 | 1118 ± 0.6 | 1092.6 ± 0.5 | 1073.3 ± 0.5 | 1053 ± 0.4
13000 kPa | 1231.7 ± 1 | 1205.9 ± 0.9 | 1182.2 ± 0.8 | 1158.5 ± 0.8 | 1137.1 ± 0.7 | 1118.3 ± 0.6 | 1092.8 ± 0.5 | 1073.6 ± 0.5 | 1053.2 ± 0.4
13400 kPa | – | – | – | – | 1137.4 ± 0.7 | – | – | – | –
13500 kPa | 1232.1 ± 1 | 1206.2 ± 0.9 | 1182.6 ± 0.9 | 1158.8 ± 0.8 | – | 1118.5 ± 0.6 | 1093.2 ± 0.5 | 1073.9 ± 0.5 | 1053.5 ± 0.4
14000 kPa | 1232.5 ± 1.1 | 1206.6 ± 1 | 1183 ± 0.9 | 1159.2 ± 0.8 | 1137.7 ± 0.7 | 1118.9 ± 0.6 | 1093.4 ± 0.5 | 1074.2 ± 0.5 | 1053.8 ± 0.4
14500 kPa | 1232.9 ± 1.1 | 1207 ± 1 | – | 1159.5 ± 0.8 | 1138 ± 0.7 | 1119.2 ± 0.6 | 1093.7 ± 0.5 | 1074.4 ± 0.5 | 1054.1 ± 0.4
14600 kPa | – | – | 1183.4 ± 0.9 | – | – | – | – | – | –
15000 kPa | 1233.3 ± 1.1 | 1207.4 ± 1 | 1183.7 ± 0.9 | 1159.8 ± 0.8 | 1138.4 ± 0.7 | 1119.4 ± 0.7 | 1094 ± 0.6 | 1074.8 ± 0.5 | 1054.3 ± 0.4
15400 kPa | – | – | – | – | – | 1119.8 ± 0.7 | – | – | –
15500 kPa | 1233.7 ± 1.1 | 1207.8 ± 1 | 1184.1 ± 0.9 | 1160.2 ± 0.8 | 1138.7 ± 0.7 | – | 1094.3 ± 0.6 | 1075 ± 0.5 | 1054.6 ± 0.4
15900 kPa | – | 1208.2 ± 1 | – | – | – | 1120 ± 0.7 | – | – | –
16000 kPa | 1234.2 ± 1.1 | – | 1184.4 ± 0.9 | 1160.5 ± 0.8 | 1139 ± 0.8 | – | 1094.6 ± 0.6 | 1075.3 ± 0.5 | 1054.8 ± 0.4
16500 kPa | 1234.6 ± 1.2 | 1208.6 ± 1.1 | 1184.8 ± 1 | 1160.9 ± 0.9 | 1139.3 ± 0.8 | 1120.4 ± 0.7 | 1094.8 ± 0.6 | 1075.6 ± 0.5 | 1055.1 ± 0.4
17000 kPa | 1235 ± 1.2 | – | 1185.1 ± 1 | 1161.2 ± 0.9 | 1139.7 ± 0.8 | 1120.7 ± 0.7 | 1095.1 ± 0.6 | 1075.9 ± 0.5 | 1055.3 ± 0.4
17100 kPa | – | 1209 ± 1.1 | – | – | – | – | – | – | –
17400 kPa | – | – | 1185.4 ± 1 | – | – | – | – | – | –
17500 kPa | 1235.4 ± 1.2 | 1209.4 ± 1.1 | – | 1161.6 ± 0.9 | 1140 ± 0.8 | 1121 ± 0.7 | 1095.4 ± 0.6 | 1076.1 ± 0.5 | 1055.6 ± 0.4
17900 kPa | – | – | – | 1161.8 ± 0.9 | – | – | – | – | –
18000 kPa | 1235.8 ± 1.2 | 1209.8 ± 1.1 | 1185.8 ± 1 | – | 1140.3 ± 0.8 | 1121.2 ± 0.7 | 1095.7 ± 0.6 | 1076.4 ± 0.5 | 1055.8 ± 0.4
18400 kPa | – | 1210.2 ± 1.1 | – | 1162.2 ± 0.9 | – | – | – | – | –
18500 kPa | 1236.2 ± 1.2 | – | 1186.1 ± 1 | – | 1140.6 ± 0.8 | 1121.5 ± 0.7 | 1096 ± 0.6 | 1076.7 ± 0.5 | 1056.1 ± 0.4
19000 kPa | 1236.6 ± 1.3 | 1210.6 ± 1.1 | 1186.6 ± 1 | 1162.6 ± 0.9 | 1140.9 ± 0.8 | 1121.9 ± 0.7 | 1096.3 ± 0.6 | 1077 ± 0.5 | 1056.4 ± 0.4
19400 kPa | – | – | – | – | 1141.3 ± 0.8 | – | – | – | –
19500 kPa | 1237 ± 1.3 | 1211 ± 1.2 | 1186.9 ± 1.1 | 1163 ± 0.9 | – | 1122.2 ± 0.7 | 1096.6 ± 0.6 | 1077.2 ± 0.5 | 1056.6 ± 0.5
20000 kPa | 1237.5 ± 1.3 | 1211.4 ± 1.2 | 1187.4 ± 1.1 | 1163.4 ± 1 | 1141.9 ± 0.9 | 1122.6 ± 0.8 | 1096.9 ± 0.6 | 1077.5 ± 0.5 | 1057.1 ± 0.5
